Results taken from ChEMBL document CHEMBL4732037, “Drugging the undruggable: a computational chemist''s view of KRASG12C” (RSC Med Chem, 2021).

What was measured:
[1] = Lipophilicity, log D of compound; type: physicochemical; conditions: octanol/water
[2] = Efflux ratio in human Caco2 cells; type: ADME, cell-based; conditions: Caco-2

logD [1] | efflux ratio [2] | SMILES
3 |  | C=CC(=O)N1CCN2c3c(cnc4cc(-c5c(O)cccc5F)c(Cl)cc34)NC(=O)[C@H]2C1
3 | 0.9 | C=CC(=O)N1CCN2c3c(cnc4cc(-c5c(O)cccc5F)c(Cl)cc34)N(C)C(=O)[C@H]2C1
